Paper PMC6792352, “Limited Chemical Structural Diversity Found to Modulate Thyroid Hormone Receptor in the Tox21 Chemical Library” (Environmental Health Perspectives, 2019)
Structures can show the parent of a compound that is named as a salt.

Assay: in vitro
Details: rat, gh3-tre-luc cells, AC50 (uM) modified / 1000

Structure (SMILES) | CC50 at 24 h
C#C[C@]1(O)CC[C@H]2[C@@H]3CCC4=CC(=NO)CC[C@@H]4[C@H]3CC[C@@]21CC [Norelgestromin] | 35.1 µM
CCCCCCCCCCCCCCCCCCOP(=O)([O-])OC1CC[N+](C)(C)CC1 [Perifosine] | > 20 µM
CC(C)C(=O)OCCc1ccccc1 [2-Phenylethyl 2-methylpropanoate] | > 90 µM
C/C=C1\[C@H]2C=C(C)C[C@]1(N)c1ccc(=O)[nH]c1C2 [Huperzine A] | > 50 µM
COC(=O)c1ccc(CBr)cc1 [Methyl 4-(bromomethyl)benzoate] | > 90 µM
CC(=O)Nc1ccc(/C=N/NC(N)=S)cc1 [Amithiozone] | > 50 µM
CC(C)(C)OCC1CO1 (stereo not drawn) [tert-Butyl glycidyl ether] | > 90 µM
O=S(=O)(Oc1ccc(Cl)cc1)c1ccc(Cl)cc1 [Chlorfenson] | > 90 µM
C=CCOC(=O)C(C)(C)OC(=O)c1cc(-n2c(=O)cc(C(F)(F)F)n(C)c2=O)ccc1Cl [Butafenacil] | > 90 µM
O=C1c2c(O)cccc2[C@H]([C@@H]2O[C@H](CO)[C@@H](O)[C@H](O)[C@H]2O)c2cc(CO)cc(O)c21 [Aloin A] | > 50 µM
CCCCc1ccc(O)cc1 [4-Butylphenol] | 92.9 µM
CCCCC(CC)COC(=O)/C=C/c1ccc(OC)cc1 (stereo not drawn) [2-Ethylhexyl trans-4-methoxycinnamate] | > 90 µM
O=Cc1cc(O)ccc1Br [2-Bromo-5-hydroxy-benzaldehyde] | > 90 µM
CCC(C(=O)NC(=O)NC(C)=O)c1ccccc1 (stereo not drawn) [Acetylpheneturide] | > 50 µM
CCOC(=O)N(C)N=O [N-Nitroso-N-methylurethane] | > 90 µM
Cc1ccc(S(=O)(=O)NCl)cc1 [Chloramine T hydrate (1:x)] | > 80 µM
CC(=O)N(CC(O)CO)c1c(I)c(C(=O)NCC(O)CO)c(I)c(C(=O)NCC(O)CO)c1I (mixture of isomers) [Iohexol] | > 50 µM
CCN(CC)CCN1C(=O)CN=C(c2ccccc2F)c2cc(Cl)ccc21 [Flurazepam] | 23.1 µM
CCn1nc(Cc2ccccc2)cc1C1CCN(C[C@H]2C[C@H](N(C)[C@@H](C(=O)O)C(C)C)C[C@@H]2c2cccc(F)c2)CC1 [MK-578] | 66.4 µM
CC(=O)c1ccc2c(c1)N(CCCN1CCC(CCO)CC1)c1ccccc1S2 [Piperacetazine] | 10.7 µM
O=[N+]([O-])NC1=NCCN1Cc1ccc(Cl)nc1 [Imidacloprid] | > 90 µM
COC(=O)C(C)(C)C [Methyl pivalate] | > 90 µM
CCCCc1c(C)nc(NCC)nc1OS(=O)(=O)N(C)C [Bupirimate] | > 90 µM
C1=C\CC/C=C/CC/C=C/CC/1 [1,5,9-Cyclododecatriene] | > 90 µM
CCCCCc1cc(O)c2c(c1)OC(C)(C)[C@@H]1CCC(C)=C[C@@H]21 [Tetrahydrocannabinol] | 10.9 µM
COc1cc(C(=O)OCCCN2CCCN(CCCOC(=O)c3cc(OC)c(OC)c(OC)c3)CC2)cc(OC)c1OC [Dilazep] | 7.82 µM

Structure (SMILES) | CC50 at 24 h
Cn1c(=O)c2c(ncn2CC2OCCO2)n(C)c1=O [Doxofylline] | > 50 µM
CC(C)Cn1cnc2c(N)nc3ccccc3c21 [Imiquimod] | > 50 µM
N#CS [Potassium thiocyanate] | > 90 µM
Cc1cc(C)c(N=Nc2c(O)c(S(=O)(=O)O)cc3cc(S(=O)(=O)O)ccc23)cc1C [Ponceau 3R] | > 6 µM
c1cnc2c(n1)CCCC2 [5,6,7,8-Tetrahydroquinoxaline] | > 90 µM
C1=CCC(c2ccccc2)CC1 (stereo not drawn) [4-Phenyl-1-cyclohexene] | > 90 µM
O=C1OC(=O)c2cc([N+](=O)[O-])ccc21 [4-Nitrophthalic anhydride] | > 90 µM
Cc1ccc(Cl)cc1 [4-Chlorotoluene] | > 100 µM
Nc1ccc(N)c(Cl)c1 [2-Chloro-1,4-diaminobenzene sulfate] | > 90 µM
COC(C)OC [1,1-Dimethoxyethane] | > 90 µM
O=C1CCCCCN1 [Caprolactam] | > 90 µM
O=NN1CCN(N=O)CC1 [Dinitrosopiperazine] | > 90 µM
O=C(Oc1ccccc1)c1ccccc1C(=O)Oc1ccccc1 [Diphenyl phthalate] | 53.7 µM
C1=CCC2CC=CC2C1 (stereo not drawn) [3a,4,7,7a-Tetrahydroindene] | > 90 µM
CC(=O)O[C@H]1CC[C@@]2(C)C(=CC[C@H]3[C@@H]4CC[C@H](C(C)=O)[C@@]4(C)CC[C@@H]32)C1 [3beta-Acetoxy-5-pregnene-20-one] | > 50 µM
OCCN1C[C@H](O)[C@@H](O)[C@H](O)[C@H]1CO [Miglitol] | > 50 µM
NC(=O)NC(=O)Cc1ccccc1 [Phenacemide] | > 50 µM
CC(C)CNCC(C)C [Diisobutylamine] | > 90 µM
CCOC(=O)C(SP(=S)(OC)OC)c1ccccc1 (stereo not drawn) [Phenthoate] | > 90 µM
C=CCCCCCCCCCCCC [1-Tetradecene] | > 90 µM
COc1cc(C[C@@H](C)N)c(OC)cc1Br [R-(-)-2,5-Dimethoxy-4-bromoamphetamine hydrochloride] | 56.1 µM
CCCCCCCCCCCO [1-Undecanol] | > 90 µM
CCNC(=O)C1CC(C)CCC1C(C)C (stereo not drawn) [N-Ethyl-4-menthane-3-carboxamide] | > 90 µM
COC(=O)[C@H]1[C@H]2C[C@@H]3c4[nH]c5cc(OC)ccc5c4CCN3C[C@H]2C[C@@H](OC(=O)COc2ccc(OC)cc2)[C@@H]1OC [Mefeserpine] | > 50 µM
C=C(C)[C@@H]1CC=C(C=O)CC1 [l-Perillaldehyde] | > 90 µM
O=C(O)c1cccc(C[C@@H]2COc3ccc(OCc4nc5cc(F)ccc5s4)cc3[C@@H]2O)c1 [CP-085958] | > 90 µM

Structure (SMILES) | CC50 at 24 h
CC(=O)OCCC(C)CC(C)(C)C (stereo not drawn) [3,5,5-Trimethylhexyl acetate] | > 90 µM
Oc1ccc(C2(c3ccc(O)cc3)CC3CC2C2CCCC32)cc1 (stereo not drawn) [4,4'-Octahydro-1H-4,7-methanoindene-5,5-diyldiphenol] | 27.4 µM
CO[C@@H]1[C@@H](O[C@@H]2O[C@H](C)[C@@H](O[C@H]3C[C@@](C)(O)[C@@H](OC(=O)CC(C)C)[C@H](C)O3)[C@H](N(C)C)[C@H]2O)[C@@H](CC=O)C[C@@H](C)[C@@H](O)/C=C/C=C/C[C@@H](C)OC(=O)C[C@H]1OC(C)=O [Josamycin] | > 20 µM
C=C(C)[C@@H]1CC=C(C)C(=O)C1 [R-(-)-Carvone] | > 90 µM
CC(C)C(=O)O [2-Methylpropanoic acid] | > 90 µM
C[C@H]1O[C@@H](O[C@H]2CC[C@@]3(C)[C@H](CC[C@@H]4[C@@H]3C[C@@H](O)[C@]3(C)[C@@H](C5=CC(=O)OC5)CC[C@]43O)C2)C[C@H](O)[C@@H]1O[C@H]1C[C@H](O)[C@H](O[C@H]2C[C@H](O)[C@H](O[C@@H]3O[C@H](CO)[C@@H](O)[C@H](O)[C@H]3O)[C@@H](C)O2)[C@@H](C)O1 [Deslanoside] | > 50 µM
C=C(C)C(=O)OCCCCCC [Hexyl methacrylate] | > 90 µM
CC1(C)CC(O)CC(C)(C)N1[O] [4-Hydroxy-2,2,6,6-tetramethylpiperidin-1-yl)oxidanyl] | > 90 µM
OC(CCl)CCl [1,3-Dichloro-2-propanol] | > 90 µM
CC(=O)O[C@]1(C(C)=O)CC[C@H]2[C@@H]3C=C(Cl)C4=CC(=O)[C@@H]5C[C@@H]5[C@]4(C)[C@H]3CC[C@@]21C [Cyproterone acetate] | 66.8 µM
CC1(C)O[C@@H]2C[C@H]3[C@@H]4CCC5=CC(=O)C=C[C@]5(C)[C@H]4[C@@H](O)C[C@]3(C)[C@]2(C(=O)CO)O1 [Desonide] | > 50 µM
O=C(NCN1CCOCC1)c1cnccn1 [Morphazinamide] | > 50 µM
CN1CCN2c3ncccc3Cc3ccccc3C2C1 (stereo not drawn) [Mirtazapine] | > 50 µM
CCCCC/C=C\C=C\C(=O)OCC [Ethyl (2E,4Z)-deca-2,4-dienoate] | 29.3 µM
CCCN(CC)C(CC)C(=O)Nc1c(C)cccc1C (stereo not drawn) [Etidocaine] | > 50 µM
O=C1CCCCCCCCCCC(=O)OCCO1 [1,4-Dioxacyclohexadecane-5,16-dione] | > 90 µM
CC(C)OC(=O)Nc1cccc(Cl)c1 [Chlorpropham] | > 90 µM
Nc1ccc(S(=O)(=O)Nc2ncccn2)cc1 [Sulfadiazine] | > 20 µM
O=C1C=CC(=O)O1 [2,5-Furandione] | > 100 µM
CC(C)=CCC/C(C)=C/C=C/C(C)=C/C=C/C(C)=C/C=C/C=C(C)/C=C/C=C(C)/C=C/C=C(\C)CCC=C(C)C [Lycopene] | > 50 µM
O=C1CN=C(c2ccccc2)c2cc(Cl)ccc2N1 [Desmethyldiazepam] | > 50 µM
C[C@]12CCC(=O)C=C1[C@@H]1C[C@@H]1[C@H]1[C@@H]3[C@@H]4C[C@@H]4[C@@]4(CCC(=O)O4)[C@@]3(C)CC[C@@H]12 [Drospirenone] | > 50 µM
COc1cc(-c2ccc(=O)[nH]n2)ccc1OC(F)F [Zardaverine] | > 50 µM
COc1cccc([C@@]2(O)CCCC[C@@H]2CN(C)C)c1 [Tramadol hydrochloride] | > 50 µM

Same assay, conditions: rat, gh3-tre-luc cells, AC50 (uM) modified / 1000, Tox21_110001=Tox21_112835; viability, 1 nM T3 present, 24 h

Structure (SMILES) | CC50 at 24 h
C[C@H]1[C@H]2Cc3ccc(O)cc3[C@]1(C)CCN2CCc1ccccc1 [(-)-Phenazocine hydrobromide] | 48.2 µM

Same assay, conditions: rat, gh3-tre-luc cells, AC50 (uM) modified / 1000, Tox21_110001=Tox21_112859; viability, 1 nM T3 present, 24 h

Structure (SMILES) | CC50 at 24 h
CC(CC(C#N)(c1ccccc1)c1ccccc1)N(C)C (stereo not drawn) [Premethadone] | 21.6 µM

Same assay, conditions: rat, gh3-tre-luc cells, AC50 (uM) modified / 1000, Tox21_110001=Tox21_201592; viability, 1 nM T3 present, 24 h

Structure (SMILES) | CC50 at 24 h
O=C1C2(Cl)C3(Cl)C4(Cl)C(Cl)(Cl)C5(Cl)C3(Cl)C1(Cl)C5(Cl)C24Cl (stereo not drawn) [Kepone] | 11.6 µM

Same assay, conditions: rat, gh3-tre-luc cells, AC50 (uM) modified / 1000, Tox21_110001=Tox21_300098; viability, 1 nM T3 present, 24 h

Structure (SMILES) | CC50 at 24 h
O=C1C2(Cl)C3(Cl)C4(Cl)C(Cl)(Cl)C5(Cl)C3(Cl)C1(Cl)C5(Cl)C24Cl (stereo not drawn) [Kepone] | 10.7 µM

Same assay, conditions: rat, gh3-tre-luc cells, AC50 (uM) modified / 1000, Tox21_110001=Tox21_300398; viability, 1 nM T3 present, 24 h

Structure (SMILES) | CC50 at 24 h
CCOP(=S)(OCC)SCSCC [Phorate] | > 90 µM
